Assay [1] deals with cholesterol synthesis in rat liver. The assay can be described thus: Ex-Vivo Fasted (cholesterol synthesis from [14C] sodium acetate in liver slices of orally dosed fasted rats). Conditions: 1 mg/kg oral in 0.5% methocel, rats fasted 16 hours, livers removed after one hour. As to the method: The second method (designated Ex-Vivo Fasted) used was as follows. Rats of 170-210 g were maintained on a low cholesterol diet for one week prior to use. Drugs (identified in Table I) were given orally in 0.5% methocel to fasted (fasted for 16 hours) rats. After one hour the rats were decapitated and their livers removed and transferred to chilled oxygenated Kreb's-Ringer-bicarbonate buffer (pH 7.4). The livers were then chopped into 0.5 mm slices using a McIlwain tissue chopper, and were suspended in the same buffer. Aliquots of the suspension containing 100 mg tissue were pipetted to culture tubes which contained [^14 C] sodium acetate (2μ Ci, 1 mM). The tubes were gassed with 95% O2 /5 % CO2, capped and incubated at 37° C. in a shaking water bath at 150 oscillation/min. for two hours. The final assay volume was 1.0 ml. After incubation the reaction was stopped by the addition of 1.0 ml of 15% KOH in ethanol, and the internal standard ^3 H-cholesterol was added. The tubes were recapped and the samples were saponified at 75° C. for two hours with periodic mixing. Subsequently an aliquot was removed for protein analysis using Bio-Rad's standard kit, and the remainder of the saponified samples was extracted with 10 ml of petroleum ether for 30 minutes. […] After visualization with iodine the cholesterol spots were cut and counted with liquid scintillation fluid.

Assay [2] has as its target HMG-CoA reductase. The experiment in a line: HMGR Screen (inhibition of solubilized rat liver HMG-CoA reductase, [14C] HMG-CoA). It is filed as biochemical. Conditions: solubilized rat liver microsomal enzyme; 20 μM HMG-CoA; 37° C.; pH 7.0; read-out: IC50 (Micromoles per liter), HMGR Screen. As for the experimental part:
The first method used (designated HMGR Screen) was as follows. Male rats were acclimated to an alternate 12 hour light-dark cycle for a period of 2-3 weeks. The animals, weighing 180-230 g, were fed ad libitum a rat chow containing 2% cholestyramine for 5 days prior to sacrifice at the mid-dark period. Liver microsomes were prepared and HMGR enzyme was solubilized from the microsomes by freeze-thaw manipulation in high ionic strength buffer. The enzyme preparation was stored at -80° C. in 300 μl portion samples. Prior to use, the enzyme was activated at 37° C. for 30 minutes in a reaction mixture. The reaction mixture contained in a volume of 240 μl:0.14M potassium phosphate buffer (pH 7.0); 0.18M KCl; 3.5 mM EDTA; 10 mM dithiothreitol; 0.1 mg/ml BSA; 30,000 cpm of [^14 C] HMG-CoA; 20 μM HMG-CoA, and 200 μg of solubilized enzyme with and without inhibitors (in 10 μDMSO). After 5 minutes incubation at 37° C. the reaction was initiated with 0.2 mM NADPH. The final assay volume was 300 μl. The reaction then was terminated with 100 μl of 1N HCl. After an additional incubation for 15 minutes at 37° C. to allow for complete lactonization of the product, the mixture was diluted with 3 ml GDW. […] After the addition of 10 ml of Aquasol , radioactivities of the samples were measured in a scintillation counter.

Each structure is given as a SMILES string.

On to `O=C(O)C[C@H](O)C[C@H](O)/C=C/C1=C(c2ccc(F)cc2)C=C(c2ccccc2)C12CCCC2` (relative stereo), for which the inhibition at 1 mg/kg in assay [1] was determined as 65 ± 4%.

Turning to `O=C1C[C@@H](O)C[C@H](/C=C/C2=C(c3ccc(F)cc3)C=C(c3ccccc3)C23CCCC3)O1` (relative stereo) [Compound of Example I Step 9, Trans-(E)-6-[2-[2-(4-fluorophenyl)-4-phenyl-spiro[4,4]-nona-1,3-dien-1-yl]ethenyl]-3,4,5,6-tetrahydro-4-hydroxy-2H-pyran-2-one], the IC50 in assay [2] came out at 0.9 nM.

As to `O=C1C[C@@H](O)C[C@H](/C=C/C2=C(c3ccc(F)cc3)C=C(c3ccccc3)C23CCCC3)O1` (relative stereo) [Lactone Form of Compound of Example I Step 9] [Trans-(E)-6-[2-[2-(4-fluorophenyl)-4-phenyl-spiro[4,4]-nona-1,3-dien-1-yl]ethenyl]-3,4,5,6-tetrahydro-4-hydroxy-2H-pyran-2-one], the IC50 in assay [2] was found to be 70 nM.

The values above are taken from patent US5001128A, “HMG-COA reductase inhibitors” (Rhone-Poulenc Rorer Pharmaceuticals Inc., priority 1989, dated 1991).
